Data from ChEMBL document CHEMBL1157539, “Thousands of chemical starting points for antimalarial lead identification” (Nature, 2010).

What follows are compounds tested on Plasmodium falciparum (assay: GSK_TCMDC: Inhibition of Plasmodium falciparum 3D7 in whole erythrocytes, using parasite LDH activity as an index of growth.). Conditions: Plasmodium falciparum, 3D7.
Type: functional, organism-based

Row | SMILES | XC50
1 | CN/C(=C\[N+](=O)[O-])NCCSCc1cc(C)c(CN(C)C)s1 | 348 nM
2 | Cc1cc(N/N=C/c2ccccc2[N+](=O)[O-])c2cc(C(F)(F)F)ccc2n1 | 750 nM
3 | Cc1cc(N/N=C/c2cccc([N+](=O)[O-])c2)c2ccc(C(F)(F)F)cc2n1 | 876 nM
4 | Nc1nc(N)c2c(ccc3[nH]ccc32)n1 | 1080 nM
5 | COc1ccc(CNc2ccnc(-n3cnc4cc(C)c(C)cc43)n2)cc1Cl | 274 nM
6 | Brc1cc2c(cc1C=NNc1nc(=Nc3ccccc3)[nH]c(=Nc3ccccc3)[nH]1)OCO2 | 798 nM
7 | O=C(O)CCSSc1cccc[n+]1[O-] | 808 nM
8 | N=C(N)NN=CC(=O)Nc1ccc(Cl)c(Cl)c1 | 737 nM
9 | Cn1cncc1C(=O)NC1CCN(c2ccnc(Nc3ccc(F)cc3)n2)C1 (stereo not drawn) | 832 nM
10 | Oc1ccc(-c2ccccc2)cc1CNC1CCCCC1 | 497 nM
11 | Cc1ccc(NC(=O)c2cnc(N3CCN(c4ccncc4)CC3)c(Cl)c2)cc1 | 965 nM
12 | CCCCCCN1CCCN(Cc2ccc(C(=O)Nc3ccc(CCC)cc3)cc2)CC1 | 661 nM
13 | CCN(CC)CCN(Cc1ccc(-c2ccc(Cl)cc2)cc1)C(=O)Cn1cc(CN(C)C)c(=O)nc1SCc1ccc(F)cc1 | 748 nM
14 | Cc1cc(C)n(-c2nc(Nc3cccc(C(F)(F)F)c3)nc(-n3nc(C)cc3C)n2)n1 | 362 nM
15 | O=C(C1CCCC1)N1CCOC(CCN2CCC(c3ccccc3)CC2)(c2ccc(Cl)c(Cl)c2)C1 (stereo not drawn) | 937 nM
16 | O=C(CC(=O)C(F)(F)F)c1ccc2c(c1)OCO2 | 744 nM
17 | O=C(NC1CCN(CCC(NC(=O)c2ccccc2)c2ccc(Cl)c(Cl)c2)CC1)c1ccc(Cl)cc1 (stereo not drawn) | 1070 nM
18 | COc1cccc(CCc2ccc(O)c3c2C[C@H]2C[C@H]4[C@H](N(C)C)C(O)=C(C(N)=O)C(=O)[C@@]4(O)C(O)=C2C3=O)c1 | 850 nM
19 | C=CCc1cccc(C)c1OCCCON1C(=N)N=C(N)NC1(C)C | 3.2 nM
20 | CC(CCCCC(=O)Nc1ccc(C(F)(F)F)cc1)NCC(O)c1cccc(Cl)c1 (stereo not drawn) | 282 nM
21 | O=C(Nc1cccc(CN2CCCN(Cc3ccc(O)cc3)CC2)c1)c1cccc(F)c1 | 896 nM
22 | O=C(N[C@@H](Cc1ccccc1)C(=O)NCc1cccc(C(F)(F)F)c1)c1ccc(O)c(-c2ccc(Cl)c(Cl)c2)c1 | 696 nM
23 | COCCCNc1nc2cc(OC)c(OC)cc2c2nc(-c3ccccc3)nn12 | 192 nM
24 | CCCCCCNCc1c(O)ccc2c(CNCCCCCC)c(O)ccc12 | 130 nM
25 | CC(=O)Nc1ccc(CN2Cc3ccc(NC(=O)Nc4ccc(Oc5ccccc5)cc4)cc3C2)s1 | 918 nM

Row | SMILES | XC50
26 | C=CCNc1cc(-c2ccccn2)nc(-c2ccccn2)n1 | 472 nM
27 | N#Cc1cccc(NC(=O)Nc2ccc3c(c2)CCN(C2CCC2)CC3)c1 | 843 nM
28 | COc1ccc2c(c1)CCCC2NCCCCNC(=O)c1ccc(NC(=O)c2ccc(Cl)cc2)cc1 (stereo not drawn) | 381 nM
29 | COc1cccc(CN2CCCC(COC(c3ccc(F)cc3)c3ccc(F)cc3)C2)c1O (stereo not drawn) | 330 nM
30 | COc1cc(Cc2cnc(N)nc2N)cc(OC(C)C)c1OC | 1040 nM
31 | CN(C)c1nc2cc(-n3cnc4cc(-c5ccc(Cl)cc5)sc4c3=O)ccc2n1CCCN1CCCCC1 | 845 nM
32 | CCOc1ccc(C=CC(=O)Nc2ccc3nc(N4CCOCC4)cc(C)c3c2)cc1OC | 901 nM
33 | COc1ccc2[nH]cc(C3=CCN(CC4CC4C(=O)c4ccccc4)CC3)c2n1 (stereo not drawn) | 270 nM
34 | Cc1cccc2nc(-c3ccc(-c4cccc(CN5CCN(CCN6CCOCC6)CC5)c4)s3)[nH]c12 | 153 nM
35 | CN(C)CCn1c(N)c(-c2nc3ccccc3s2)c2nc(C#N)c(C#N)nc21 | 1010 nM
36 | N#Cc1ccc(-c2ccc3nc(N4CCCN(C5CCC5)CC4)ccc3c2)cc1 | 1500 nM
37 | COc1ccc(CN2CCC(CNCCc3ccccc3Cl)CC2)cc1 | 1110 nM
38 | c1ccc(-c2ccc(CNCc3ccc(-c4cccc(-c5nc6ccccc6[nH]5)c4)cc3)s2)nc1 | 396 nM
39 | COc1cc2nc(N3CCC(CNC(=O)c4ccc(-c5ccc(C(=O)N(C)C)cc5)cc4)CC3)nc(N)c2cc1OC | 746 nM
40 | COc1ccc(NC(=O)CCNc2cc(C)nc(NCCc3ccccc3)n2)cc1 | 1160 nM
41 | Nc1nc(N)c2c(Oc3cccc4ccccc34)cccc2n1 | 1010 nM
42 | COc1cc2nc(N3CCC(CNC(=O)c4ccc(-c5ccc(Cl)cc5)cc4)CC3)nc(N)c2cc1OC | 147 nM
43 | O=[N+]([O-])c1cccc(CNCC2CCN(CC3CCCCC3)CC2)c1 | 1290 nM
44 | c1cncc(Oc2ccc(Nc3ccnc4cc(-c5cccc(CN6CCOCC6)c5)ccc34)cc2)c1 | 305 nM
45 | O=S(=O)(c1cccc2cccnc12)N1CCN(C2CCCCC2)CC1 | 765 nM
46 | Cc1cc(C(=O)CN2C(=O)NC3(CCOc4ccccc43)C2=O)c(C)n1Cc1ccco1 (stereo not drawn) | 605 nM
47 | CC1CC1C(=O)NC1CCN(CC2(c3ccccc3)CCCCC2)CC1 (stereo not drawn) | 637 nM
48 | c1ccc2c(c1)CN(CC1CC1)CC1(CCN(Cc3c[nH]c4cnccc34)CC1)O2 | 900 nM
49 | Cc1cc(F)ccc1C1CCN(CCCCNC(=O)c2ccc(NC(=O)c3ccc(Cl)cc3)cc2)CC1 | 692 nM
50 | CC(CCc1ccc(OCc2ccccc2)cc1)NCC(O)c1ccccc1 (stereo not drawn) | 1100 nM

Row | SMILES | XC50
51 | O=C(Nc1ccccc1O)c1ccc(S(=O)(=O)c2ccc(Cl)cc2)cc1 | 1350 nM
52 | CCCCCCN1CCC(NCc2cccc(-n3ccnc3)c2)CC1 | 255 nM
53 | O=C(Nc1ccc(OC2CCN(Cc3ccsc3)C2)c(Cl)c1)c1cccs1 (stereo not drawn) | 960 nM
54 | O=C(Nc1ccc(C(F)(F)F)cc1)c1ccc(S(=O)(=O)NC2CCCN(CC3CCCCC3)C2)cc1 (stereo not drawn) | 718 nM
55 | CC[C@H](C)CNC(=O)c1ccnc(-c2cccc(CN3CCC(N4CCCC4)CC3)c2)c1 | 851 nM
56 | CC(C)c1ccc(C(NC(=O)C2CCCCC2)c2ccc3cccnc3c2O)cc1 (stereo not drawn) | 603 nM
57 | O=C(Nc1ccccc1)N(Cc1ccccc1-c1cccc(CNCCc2ccccc2)c1)C1CCN(Cc2ccccc2)CC1 | 176 nM
58 | NCC1CCCN1Cc1cccc(-c2cccc(-c3nc4cc(F)ccc4[nH]3)c2)c1 (stereo not drawn) | 813 nM
59 | COc1ccc(N2CCN(c3nc(Nc4ccc(NC(C)=O)cc4)nc(N4CCCC4)n3)CC2)cc1 | 976 nM
60 | Cc1cccc2nc(-c3ccc(-c4ccc(CN5CCC(C(N)=O)CC5)cc4)s3)[nH]c12 | 907 nM
61 | COc1cc(NC(=O)/C=C/c2cc3ccccc3n2C)ccc1OCCN(C(C)C)C(C)C | 387 nM
62 | Cc1cccc2nc(-c3ccc(-c4ccc(NC(=O)C(=O)c5cccn5C)cc4)cc3)[nH]c12 | 819 nM
63 | CN1CCC(Oc2ccc(CN3CC[C@H](NC(=O)c4ccc(Cl)c(F)c4)C3)c3ccccc23)C1 (stereo partly drawn) | 738 nM
64 | OC(CNc1ccnc(Nc2cccc(Cl)c2)n1)c1cccc(C(F)(F)F)c1 (stereo not drawn) | 513 nM
65 | CCc1ccc(CN2CCC(NC(=O)c3cc(-c4ccc(N(C)C)cc4)cs3)C2)cc1 (stereo not drawn) | 1440 nM
66 | O=S1(=O)NCc2ccc(Nc3nccc(Nc4ccc5c(cnn5Cc5ccccc5)c4)n3)cc21 | 750 nM
67 | Cn1nc(C(=O)N2CCC(c3[nH]ncc3Cc3ccccc3)CC2)c2ccccc2c1=O | 304 nM
68 | CCOc1ccc2[nH]c(C)cc(=NN=Cc3cccc(C)n3)c2c1 | 754 nM
69 | COc1ccc2[nH]c(C)cc(=NN=Cc3ccccc3F)c2c1 | 365 nM
70 | COc1cc2c(c(OC)c1[N+](=O)[O-])C=CC1(O2)N(C)c2ccc([N+](=O)[O-])cc2C1(C)C (stereo not drawn) | 905 nM
71 | O=C1Nc2cccc3c2C1(CCCCN1CCC(c2c(-c4ccccc4)[nH]c4ccccc24)CC1)CCC3 (stereo not drawn) | 1200 nM
72 | O=C(NC1CCC(N2CCC(c3ccccc3C(F)(F)F)CC2)CC1)c1cc2ccccc2[nH]1 (stereo not drawn) | 521 nM
73 | COc1cc(OC)cc(-c2nc3ccc(OCCN(C)C)c(C#N)c3[nH]2)c1 | 655 nM
